In the NIST ThermoML archive (doi:10.1021/je301353z):

Test: xn = mol fraction of the nth substance listed
Settings: 101 kPa, Liquid; for speed of sound: Sing-around technique in a fixed-path interferometer; for mass density: Vibrating tube method

O=C1CCCN1 [2-pyrrolidinone] + c1ccncc1
Settings	mass density, 293.15 K [kg/m3]	mass density, 298.15 K [kg/m3]	mass density, 303.15 K [kg/m3]	mass density, 308.15 K [kg/m3]	speed of sound, 293.15 K [m/s]	speed of sound, 298.15 K [m/s]	speed of sound, 303.15 K [m/s]	speed of sound, 308.15 K [m/s]
x1 = 0.1333	1001.83	997.07	992.29	987.38	1468.5	1445.6	1426.5	1406.5
x1 = 0.1801	1008.31	1003.57	998.88	994.01	1478.1	1455.5	1436.7	1416.9
x1 = 0.2312	1015.32	1010.62	1006.02	1001.17	1488.6	1466.4	1447.9	1428.3
x1 = 0.2713	1020.76	1016.1	1011.55	1006.71	1496.9	1475.1	1456.6	1437.4
x1 = 0.3312	1028.79	1024.17	1019.7	1014.93	1509.4	1488.1	1469.8	1450.9
x1 = 0.3717	1034.17	1029.56	1025.16	1020.41	1518	1496.8	1478.8	1460
x1 = 0.4312	1041.94	1037.41	1033.04	1028.34	1530.8	1510	1491.9	1473.6
x1 = 0.4752	1047.59	1043.13	1038.77	1034.15	1540.2	1519.7	1501.8	1483.5
x1 = 0.5316	1054.74	1050.35	1046.02	1041.5	1552.3	1532.1	1514.4	1496.3
x1 = 0.5717	1059.77	1055.45	1051.12	1046.65	1560.9	1541	1523.2	1505.6
x1 = 0.6219	1065.97	1061.74	1057.4	1053.03	1571.9	1552.1	1534.4	1517
x1 = 0.6772	1072.71	1068.57	1064.23	1059.98	1583.7	1564.5	1546.7	1529.5
x1 = 0.7314	1079.26	1075.19	1070.86	1066.7	1595.4	1576.4	1558.8	1541.7
x1 = 0.7714	1084.05	1080.04	1075.69	1071.59	1603.9	1585.1	1567.6	1550.7
x1 = 0.8312	1091.16	1087.2	1082.86	1078.85	1616.4	1598.2	1580.7	1564.3
x1 = 0.8712	1095.91	1091.96	1087.64	1083.64	1624.7	1606.7	1589.3	1573.2
x1 = 0.9013	1099.48	1095.53	1091.23	1087.24	1630.8	1613.2	1596	1580
x1 = 0.9311	1103.03	1099.05	1094.78	1090.78	1636.8	1619.6	1602.4	1586.6

c1ccncc1 [pyridine] + CN1CCCC1=O
Settings	mass density, 293.15 K [kg/m3]	mass density, 298.15 K [kg/m3]	mass density, 303.15 K [kg/m3]	mass density, 308.15 K [kg/m3]	speed of sound, 293.15 K [m/s]	speed of sound, 298.15 K [m/s]	speed of sound, 303.15 K [m/s]	speed of sound, 308.15 K [m/s]
x2 = 0.1276	994.55	989.82	985.09	980.3	1467.8	1445	1425.5	1405.3
x2 = 0.1779	998.64	993.95	989.28	984.53	1478.4	1455.9	1436.8	1416.4
x2 = 0.2348	1003	998.35	993.72	988.98	1490.6	1468.4	1449.4	1429.1
x2 = 0.2664	1005.29	1000.65	996.04	991.33	1497.6	1475.5	1456.2	1436.2
x2 = 0.3291	1009.56	1004.94	1000.35	995.65	1511.1	1489	1469.8	1449.7
x2 = 0.3707	1012.2	1007.56	1002.99	998.31	1519.6	1498	1478.9	1458.8
x2 = 0.4328	1015.86	1011.21	1006.65	1001.96	1532.2	1510.7	1491.6	1471.5
x2 = 0.4749	1018.16	1013.51	1008.96	1004.25	1540.4	1518.6	1499.5	1479.4
x2 = 0.5215	1020.5	1015.82	1011.28	1006.63	1548.4	1527	1508.3	1487.9
x2 = 0.5647	1022.48	1017.8	1013.27	1008.63	1555.7	1534.4	1515.3	1495.4
x2 = 0.6364	1025.43	1020.74	1016.23	1011.56	1565.6	1544.5	1525.6	1505.9
x2 = 0.6778	1026.91	1022.19	1017.71	1013.05	1569.8	1549	1530.8	1510.5
x2 = 0.7312	1028.58	1023.87	1019.36	1014.76	1574.5	1553.6	1535.6	1515.4
x2 = 0.7701	1029.65	1024.9	1020.4	1015.79	1576.5	1556.2	1537.8	1518.1
x2 = 0.8321	1031.09	1026.29	1021.76	1017.16	1577.6	1557.6	1539.3	1519.7
x2 = 0.8711	1031.8	1026.99	1022.43	1017.79	1576.7	1556.8	1538.9	1519.1
x2 = 0.9011	1032.27	1027.41	1022.83	1018.17	1575.4	1555.7	1537.4	1517.6
x2 = 0.9312	1032.65	1027.76	1023.14	1018.45	1573.3	1553.5	1535.4	1515.6
